The text below walks through data of US20150119373A1, “NOVEL BETULINIC ACID DERIVATIVES AS HIV INHIBITORS” (HETERO RESEARCH FOUNDATION, priority 2012, published 2015).

SMILES strings stand for the structures. Like-named read-outs stand apart in the source and are kept apart here.

The nature of data set [1]: Cyto-toxicity assay (MTT) in MT2 cells without virus. The data set is classed as cell-based. Particulars: human. As for the experimental part: For cyto-toxicity assay the same amount of MT2 cells as in antiviral assay without virus was added to the 96 well plates. The cyto-toxicity was measured using MTT reagent in parallel with p24 estimation. The percent viability is calculated in comparison with vehicle control.

In data set [2] the test system is HIV-1 strain 92HT599. Description: Antiviral activity: p24 estimation in MT2 cells infected with HIV-1 strain 92HT599. The data set is classed as cell-based. The settings on record: for inhibition at 0.1 µM: read-out: Antiviral activity % inhibition 100 nM; for inhibition at 1 µM: read-out: Antiviral activity % inhibition 1000 nM. As for the experimental part: MT2 cells were infected with HIV-1 strain 92HT599 (10 TCID 50/30000 cells). The infected cells were plated at the concentration of […] cells per well in 96 well plate. Test compound was added to the micro plate in defined format with the final concentration of DMSO (vehicle) is not more than 1%. Incubation was carried out in CO2 incubator for ˜96 hours for viral infection. At the end of incubation period an aliquot from each well was taken for p24 estimation. The quantitation of p24 is an index for antiviral activity of the compound. Percent inhibition was calculated with reference to control values (vehicle controls).
p-24 estimation was carried out using Advance biosciences kit as per the procedure detailed by supplier.

Data set [3] can be described thus: Single dose oral pharmacokinetic study in mice. The data set is classed as in vivo. The settings on record: Oral PK @ 30 mg/ kg dose in mice (Table 6). As for the experimental part: The test item was administered through oral route to animals (rat/mice) at 30 mg/kg dose in a suitable vehicle at 10 ml/kg dose volume. Blood samples (˜50 uL at each time point) were collected from retro-orbital plexus using K3 EDTA as anticoagulant in eppendorf tubes at defined time intervals under light ether anesthesia. The samples were centrifuged at 3500×g to separate plasma and stored at −80° C. until analysis.
Sample analysis: Test samples were analyzed using LC-MS-MS after developing fit-for-purpose method for each of test compound.

The mark [4] stands for this setting: Human immunodeficiency virus 1, 100 nM, MT2 cells, HIV-1 92HT599, ~96 hours, p24.
Where [5] appears, read: Human immunodeficiency virus 1, 1000 nM, MT2 cells, HIV-1 92HT599, ~96 hours, p24.
The mark [6] stands for this setting: Human immunodeficiency virus 1, MT2, 96 h.

Regarding `COCCOC1CCN(C(=O)[C@]23CC[C@@H](C4(C)CC4)[C@@H]2[C@H]2CC[C@@H]4[C@@]5(C)CC[C@H](OC(=O)CC(C)(C)C(=O)O)C(C)(C)[C@@H]5CC[C@@]4(C)[C@]2(C)CC3)CC1` [Example 41, 4-(((1R,3aS,5aR,5bR,7aR,9S,11aR,11bR,13aR,13bR)-3a-(4-(2-methoxyethoxyl)piperidine-1-carbonyl)-5a,5b,8,8,11a-pentamethyl-1-(1-methylcyclopropyl)icosahydro-1H-cyclopenta[a]chrysen-9-yl)oxy)-2,2-dimethyl-4-oxobutanoic acid], in data set [1], the viability at 100 nM came out at 86% and the viability at 1000 nM was 86%. The inhibition at 0.1 µM in data set [2] (setting [4]) is 97%. In data set [2] (setting [5]), the inhibition at 1 µM was 99%. Also, the Tlast in data set [3] came out at 48 h. In data set [3] (mouse, plasma), the AUC(0-inf) came to 240 µg·h/mL, the highest level (Cmax) was 9200 ng/mL and the Tmax came to 6.5 h. Besides, the AUC(0-t) in data set [3] (mouse, plasma, read-out: AUCt) amounted to 214 µg·h/mL.

In data set [1], `CC(C)(CC(=O)O[C@H]1CC[C@]2(C)[C@H]3CC[C@@H]4[C@H]5[C@H](C6(C)CC6)CC[C@]5(C(=O)N5CCCCC5)CC[C@@]4(C)[C@]3(C)CC[C@H]2C1(C)C)C(=O)O` [Compound 3, 2,2-dimethyl-4-oxo-4-((1R,3aS,5aR,5bR,7aR,9S,11aR,11bR,13aR,13bR)-5a,5b,8,8,11a-pentamethyl-1-(1-methylcyclopropyl)-3a-(piperidine-1-carbonyl)icosahydro-1H-cyclopenta[a]chrysen-9-yloxy)butanoic acid] showed a viability at 100 nM of 100% and a viability at 1000 nM of 99%. In addition, the inhibition at 0.1 µM in data set [2] (setting [4]) is 97%. In addition, in data set [2] (setting [5]), the inhibition at 1 µM was 97%.

For the compound `COCCOCCOC1CCN(C(=O)[C@]23CC[C@@H](C4(C)CC4)[C@@H]2[C@H]2CC[C@@H]4[C@@]5(C)CC[C@H](OC(=O)CC(C)(C)C(=O)O)C(C)(C)[C@@H]5CC[C@@]4(C)[C@]2(C)CC3)CC1` [Example 43, 4-(((1R,3aS,5aR,5bR,7aR,9S,11aR,11bR,13aR,13bR)-3a-(4-(2-(2-methoxyethoxyl)ethoxy)piperidine-1-carbonyl)-5a,5b,8,8,11a-pentamethyl-1-(1-methylcyclopropyl)icosahydro-1H-cyclopenta[a]chrysen-9-yl)oxy)-2,2-dimethyl-4-oxobutanoic acid], in data set [1], the viability at 100 nM is 100% and the viability at 1000 nM turned out to be 100%. Also, in data set [2] (setting [4]), the inhibition at 0.1 µM is 99%. Besides, in data set [2] (setting [5]), the inhibition at 1 µM is 99%.

`CCN1CCN(C2CCN(C(=O)[C@]34CC[C@@H](C5(C)CC5)[C@@H]3[C@H]3CC[C@@H]5[C@@]6(C)CC[C@H](OC(=O)[C@H]7C[C@@H](C(=O)O)C7(C)C)C(C)(C)[C@@H]6CC[C@@]5(C)[C@]3(C)CC4)CC2)CC1` [Example 46, (1R,3S)-3-((((1R,3aS,5aR,5bR,7aR,9S,11aR,11bR,13aR,13bR)-3a-(4-(4-ethylpiperazin-1-yl)piperidine-1-carbonyl)-5a,5b,8,8,11a-pentamethyl-1-(1-methylcyclopropyl)icosahydro-1H-cyclopenta[a]chrysen-9-yl)oxy)carbonyl)-2,2-dimethylcyclobutane-1-carboxylic acid]: in data set [1], the viability at 100 nM came out at 100% and the viability at 1000 nM stood at 90%. Moreover, in data set [2] (setting [4]), the inhibition at 0.1 µM was 100%. Further, the inhibition at 1 µM in data set [2] (setting [5]) was 100%.

In data set [1], `C=C(C)[C@@H]1CC[C@]2(c3nnc(-c4ccccc4)o3)CC[C@]3(C)[C@H](CC[C@@H]4[C@@]5(C)CC[C@H](OC(=O)[C@H]6[C@@H](CC(=O)O)C6(C)C)C(C)(C)[C@@H]5CC[C@]43C)[C@@H]12` [Example 5, 2-((1R,3S)-2,2-dimethyl-3-(((1R,3aS,5aR,5bR,7aR,9S,11aR,11bR,13aR,13bR)-5a,5b,8,8,11a-pentamethyl-3a-(5-phenyl-1,3,4-oxadiazol-2-yl)-1-(prop-1-en-2-yl)icosa hydro-1H-cyclopenta[a]chrysen-9-yloxy)carbonyl)cyclopropyl)acetic acid] gave a viability at 100 nM of 95% and a viability at 1000 nM of 98%. Also, the inhibition at 0.1 µM in data set [2] (setting [4]) is 49%. The inhibition at 1 µM in data set [2] (setting [5]) was 92%.

As for `C=C(C)[C@@H]1CC[C@]2(C(=O)N[C@@H]3C[C@H](C(=O)N4CCCCC4)C3(C)C)CC[C@]3(C)[C@H](CC[C@@H]4[C@@]5(C)CC[C@H](OC(=O)CC(C)(C)C(=O)OCOC)C(C)(C)[C@@H]5CC[C@]43C)[C@@H]12` [Example 9, 4-(1R,3aS,5aR,5bR,7aR,9S,11aR,11bR,13aR,13bR)-3a-((1R,3S)-2,2-dimethyl-3-(piperidine-1-carbonyl)cyclobutylcarbamoyl)-5a,5b,8,8,11a-pentamethyl-1-(prop-1-en-2-yl)icosahydro-1H-cyclopenta[a]chrysen-9-yl 1-methoxymethyl 2,2-dimethylsuccinate], in data set [1], the viability at 100 nM was found to be 82% and the viability at 1000 nM amounted to 88%. The inhibition at 0.1 µM in data set [2] (setting [4]) was 64%. Further, in data set [2] (setting [5]), the inhibition at 1 µM was 99%.

Take `COCCOCCOC1CCN(C(=O)[C@]23CC[C@@H](C4(C)CC4)[C@@H]2[C@H]2CC[C@@H]4[C@@]5(C)CC[C@H](OC(=O)[C@H]6C[C@@H](C(=O)O)C6(C)C)C(C)(C)[C@@H]5CC[C@@]4(C)[C@]2(C)CC3)CC1` [Example 44, (1R,3S)-3-((((1R,3aS,5aR,5bR,7aR,9S,11aR,11bR,13aR,13bR)-3a-(4-(2-(2-methoxyethoxyl)ethoxy)piperidine-1-carbonyl)-5a,5b,8,8,11a-pentamethyl-1-(1-methylcyclopropyl)icosahydro-1H-cyclopenta[a]chrysen-9-yl)oxy)carbonyl)-2,2-dimethylcyclobutane-1-carboxylic acid]: in data set [1], the viability at 100 nM is 93% and the viability at 1000 nM was determined as 86%. Besides, the inhibition at 0.1 µM in data set [2] (setting [4]) was 97%. In addition, the inhibition at 1 µM in data set [2] (setting [5]) is 100%.

In data set [1], `C=C(C)[C@@H]1CC[C@]2(C(=O)N3CCN(CC)CC3)CC[C@]3(C)[C@H](CC[C@@H]4[C@@]5(C)CC[C@H](OC(=O)[C@H]6[C@@H](CC(=O)O)C6(C)C)C(C)(C)[C@@H]5CC[C@]43C)[C@@H]12` [Example 19, 2-((1R,3S)-3-(((1R,3aS,5aR,5bR,7aR,9S,11aR,11bR,13aR,13bR)-3a-(4-ethylpiperazine-1-carbonyl)-5a,5b,8,8,11a-pentamethyl-1-(prop-1-en-2-yl)icosahydro-1H-cyclopenta[a]chrysen-9-yloxy)carbonyl)-2,2-dimethylcyclopropyl)aceticacid] yielded a viability at 100 nM of 100% and a viability at 1000 nM of 100%. The inhibition at 0.1 µM in data set [2] (setting [4]) is 91%. Moreover, the inhibition at 1 µM in data set [2] (setting [5]) is 95%.

Regarding `[2H]C([2H])([2H])C(N1CCN(C(=O)[C@]23CC[C@@H](C(=C)C)[C@@H]2[C@H]2CC[C@@H]4[C@@]5(C)CC[C@H](OC(=O)CC(C)(C)C(=O)O)C(C)(C)[C@@H]5CC[C@@]4(C)[C@]2(C)CC3)CC1)C([2H])([2H])[2H]` [Example 7, 4-((1R,3aS,5aR,5bR,7aR,9S,11aR,11bR,13aR,13bR)-3a-(4-(1-methylethyl-2,2,2,1′,1′,1′-D6)piperazine-1-carbonyl)-5a,5b,8,8,11a-pentamethyl-1-(prop-1-en-2-yl)icosahydro-1H-cyclopenta[a]chrysen-9-yloxy)-2,2-dimethyl-4-oxobutanoic acid], the viability at 100 nM in data set [1] (100 nM, MT2 cells, MTT, read-out: Cytotoxicity % viability 100 nM) came out at 99%. Further, the viability at 1000 nM in data set [1] (1000 nM, MT2 cells, MTT, read-out: Cytotoxicity % viability 1000 nM) is 96%. In data set [2] (setting [6]), the inhibition at 0.1 µM is 98% and the inhibition at 1 µM was 97%.

Turning to `CC(CO)(CO)C(=O)N1CCN(C(=O)[C@]23CC[C@@H](C4(C)CC4)[C@@H]2[C@H]2CC[C@@H]4[C@@]5(C)CC[C@H](OC(=O)[C@H]6C[C@@H](C(=O)O)C6(C)C)C(C)(C)[C@@H]5CC[C@@]4(C)[C@]2(C)CC3)CC1` [Example 36], in data set [1], the viability at 100 nM came out at 77% and the viability at 1000 nM is 90%. Further, in data set [2] (setting [4]), the inhibition at 0.1 µM was 33%. Also, the inhibition at 1 µM in data set [2] (setting [5]) is 99%.

Consider `C=C(C)[C@@H]1CC[C@]2(c3nnc(-c4cccnc4)o3)CC[C@]3(C)[C@H](CC[C@@H]4[C@@]5(C)CC[C@H](OC(=O)[C@H]6[C@@H](CC(=O)O)C6(C)C)C(C)(C)[C@@H]5CC[C@]43C)[C@@H]12` [Example 6, 2-((1R,3S)-2,2-dimethyl-3-(((1R,3aS,5aR,5bR,7aR,9S,11aR,11bR,13aR,13bR)-5a,5b,8,8,11a-pentamethyl-1-(prop-1-en-2-yl)-3a-(5-(pyridin-3-yl)-1,3,4-oxadiazol-2-yl)icosahydro-1H-cyclopenta[a]chrysen-9-yloxy)carbonyl)cyclopropyl)aceticacid], for which, in data set [1], the viability at 100 nM came to 94% and the viability at 1000 nM was found to be 87%. Further, the inhibition at 0.1 µM in data set [2] (setting [4]) was 85%. Besides, in data set [2] (setting [5]), the inhibition at 1 µM is 92%.

What is called viability is a read-out of living cells in per cent, often relative to untreated cells. A word on the inhibition: it is the change of the read-out against control, counted positive when it falls. One may read the AUC(0-inf) as the area under the concentration-time curve extrapolated to infinity. Low values mean less exposure, high ones more exposure. The Cmax is the maximum level reached in the sampled fluid or tissue. In general, Tmax refers to the time at which the peak concentration occurs.
